Test results as given in patent US9694016B2 (Novartis AG, priority 2013, dated 2017).
Like-named read-outs stand apart in the source and are kept apart here.

Target: b-Raf (V600E) (Homo sapiens (Human), UniProt P15056, V600E)
Conditions: read-out: b-Raf IC-50
[1] = AlphaScreen, 60 min pre-incubation, reaction 3 hours at room temperature
[2] = AlphaScreen, 60 min pre-incubation, 3 hours reaction
[3] = Table 2, AlphaScreen, 3 hours reaction

Sequence of b-Raf (V600E) (P15056 whole entry V600E): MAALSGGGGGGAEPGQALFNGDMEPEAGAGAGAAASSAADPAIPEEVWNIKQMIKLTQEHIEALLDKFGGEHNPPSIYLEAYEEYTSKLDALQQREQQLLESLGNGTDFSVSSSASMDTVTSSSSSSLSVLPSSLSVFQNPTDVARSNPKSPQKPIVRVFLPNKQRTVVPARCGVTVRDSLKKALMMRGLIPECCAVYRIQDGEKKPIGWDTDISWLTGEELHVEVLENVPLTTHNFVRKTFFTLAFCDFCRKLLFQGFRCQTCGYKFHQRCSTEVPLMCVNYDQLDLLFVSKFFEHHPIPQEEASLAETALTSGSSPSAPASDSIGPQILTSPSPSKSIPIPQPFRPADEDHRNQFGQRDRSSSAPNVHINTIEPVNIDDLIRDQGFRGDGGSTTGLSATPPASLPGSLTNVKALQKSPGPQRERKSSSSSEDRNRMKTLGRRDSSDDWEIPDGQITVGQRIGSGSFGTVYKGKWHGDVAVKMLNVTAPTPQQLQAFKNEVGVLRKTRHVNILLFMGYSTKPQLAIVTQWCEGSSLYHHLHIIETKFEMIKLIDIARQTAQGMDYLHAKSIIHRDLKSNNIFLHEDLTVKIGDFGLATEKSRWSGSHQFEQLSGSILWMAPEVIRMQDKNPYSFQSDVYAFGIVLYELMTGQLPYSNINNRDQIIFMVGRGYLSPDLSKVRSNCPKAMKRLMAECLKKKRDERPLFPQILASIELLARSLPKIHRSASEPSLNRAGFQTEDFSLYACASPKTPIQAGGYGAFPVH

| IC50 [1] [nM] | IC50 [2] [nM] | Structure (SMILES) | also measured |
| --- | --- | --- | --- |
| 1.9 |  | Cc1ccc(NC(=O)c2ccnc(C(C)(C)F)c2)cc1-c1cc(N2CCOCC2)c(S(C)(=O)=O)nn1 [Example 928, 2-(2-fluoropropan-2-yl)-N-(4-methyl-3-(6-(methylsulfonyl)-5-morpholinopyridazin-3-yl)phenyl)isonicotinamide] |  |
| 1.6 |  | Cc1ccc(C(=O)Nc2cccc(C(F)(F)F)c2)cc1-c1cc(N2CCOCC2)c2nccn2n1 [Example 888, 4-methyl-3-(8-morpholinoimidazo[1,2-b]pyridazin-6-yl)-N-(3-(trifluoromethyl)phenyl)benzamide] |  |
|  | 0.7 | Cc1ccc(NC(=O)c2ccnc(C3(C#N)CC3)c2)cc1-c1cc(N2CCOCC2)n2nccc2n1 [Example 796, 2-(1-cyanocyclopropyl)-N-(4-methyl-3-(7-morpholinopyrazolo[1,5-a]pyrimidin-5-yl)phenyl)isonicotinamide] |  |
| 2.17 |  | Cc1ncc(NC(=O)c2cc(C(F)(F)F)ccn2)cc1-c1cnc(OC2CCOCC2)c(N2CCOCC2)c1 [Example 942, N-(2-methyl-5′-morpholino-6′-((tetrahydro-2H-pyran-4-yl)oxy)-[3,3′-bipyridin]-5-yl)-4-(trifluoromethyl)picolinamide] |  |
| 4.21 |  | Cc1ncc(NC(=O)c2cccc(C(O)C(F)(F)F)c2)cc1-c1cnc(OC2CCOCC2)c(N2CCOCC2)c1 (stereo not shown) [Example 977, N-(2-methyl-5′-morpholino-6′-((tetrahydro-2H-pyran-4-yl)oxy)[3,3′-bipyridin]-5-yl)-3-(2,2,2-trifluoro-1-hydroxyethyl)benzamide] |  |
|  | 0.8 | CCC(F)(F)c1cc(C(=O)Nc2ccc(C)c(-c3cc(N4CCOCC4)n(C)c(=O)c3)c2)ccn1 [Example 475, 2-(1,1-difluoropropyl)-N-(4-methyl-3-(1-methyl-6-morpholino-2-oxo-1,2-dihydropyridin-4-yl)phenyl)isonicotinamide] |  |
|  | 3.8 | Cc1ccc(C(=O)Nc2cccc(C(C)C)c2)cc1-c1cc(N2CCOCC2)c(=O)n(C)c1 [Example 436, N-(3-isopropylphenyl)-4-methyl-3-(1-methyl-5-morpholino-6-oxo-1,6-dihydropyridin-3-yl)benzamide] |  |
|  | 5.5 | Cc1ncc(NC(=O)c2cccc(C(F)(F)F)c2)cc1-c1cc(N2CCOCC2)nc(NC2CNC2)n1 [Example 787, N-(5-(2-(azetidin-3-ylamino)-6-morpholinopyrimidin-4-yl)-6-methylpyridin-3-yl)-3-(trifluoromethyl)benzamide] |  |
|  |  | Cc1ccc(NC(=O)c2cccc(C(F)(F)F)c2)cc1-c1cc(N2CCOCC2)cnn1 [Example 59, N-(4-methyl-3-(5-morpholinopyridazin-3-yl)phenyl)-3-(trifluoromethyl)benzamide] | IC50 [3]: 2.8 nM |
| 5.38 |  | Cc1ccc(NC(=O)c2cnnc(C(F)(F)F)c2)cc1-c1cc(N2CCOCC2)nc(NCCO)c1F [Example 1007, N-(3-(3-fluoro-2-((2-hydroxyethyl)amino)-6-morpholinopyridin-4-yl)-4-methylphenyl)-6-(trifluoromethyl)pyridazine-4-carboxamide] |  |
|  |  | Cc1ccc(NC(=O)c2cc(C(F)(F)F)ccn2)cc1-c1cc(N2CCOCC2)c(=O)n(C)c1 [Example 364, N-(4-methyl-3-(1-methyl-5-morpholino-6-oxo-1,6-dihydropyridin-3-yl)phenyl)-4-(trifluoromethyl)picolinamide] | IC50 [3]: 2.1 nM |
|  | 5.8 | Cc1ncc(NC(=O)c2ccnc(C(C)C)c2)cc1-c1cc(N2CCOCC2)n(C)c(=O)c1 [Example 505, N-(1′,2-dimethyl-6′-morpholino-2′-oxo-1′,2′-dihydro-[3,4′-bipyridin]-5-yl)-2-isopropylisonicotinamide] |  |
|  | 1.3 | CCOc1nnc(-c2cc(NC(=O)c3cc(C(F)(F)F)ccn3)cnc2C)cc1N1CCOCC1 [Example 611, N-(5-(6-ethoxy-5-morpholinopyridazin-3-yl)-6-methylpyridin-3-yl)-4-(trifluoromethyl)picolinamide] |  |
|  | 45.5 | Cc1ncc(NC(=O)c2ccnc(C(F)F)c2)cc1-c1cncc(N2CCOCC2)n1 [Example 535, 2-(difluoromethyl)-N-(6-methyl-5-(6-morpholinopyrazin-2-yl)pyridin-3-yl)isonicotinamide] |  |
|  | 0.6 | Cc1ccc(NC(=O)c2cccc(C(F)(F)F)c2)cc1-c1nc(N2CCOCC2)c2[nH]ccc2n1 [Example 830, N-(4-methyl-3-(4-morpholino-5H-pyrrolo[3,2-d]pyrimidin-2-yl)phenyl)-3-(trifluoromethyl)benzamide] |  |
|  | 3 | COc1nnc(-c2cc(NC(=O)c3ccnc(C(C)(C)F)c3)ccc2C)cc1N1CCOCC1 [Example 552, 2-(2-fluoropropan-2-yl)-N-(3-(6-methoxy-5-morpholinopyridazin-3-yl)-4-methylphenyl)isonicotinamide] |  |

| IC50 [1] [nM] | IC50 [2] [nM] | Structure (SMILES) | also measured |
| --- | --- | --- | --- |
|  | 24.7 | Cc1ncc(NC(=O)c2ccnc(C(C)(C)O)c2)cc1-c1cc(N2CCOCC2)n2nccc2n1 [Example 797, 2-(2-hydroxypropan-2-yl)-N-(6-methyl-5-(7-morpholinopyrazolo[1,5-a]pyrimidin-5-yl)pyridin-3-yl)isonicotinamide] |  |
|  |  | Cc1ccc(NC(=O)c2cn(C)nc2C)cc1-c1cc(N2CCOCC2)c(=O)n(C)c1 [Example 366, 1,3-dimethyl-N-(4-methyl-3-(1-methyl-5-morpholino-6-oxo-1,6-dihydropyridin-3-yl)phenyl)-1H-pyrazole-4-carboxamide] | IC50 [3]: 100 nM |
|  | 1.8 | Cc1ncc(NC(=O)c2cccc(C(F)(F)F)c2)cc1-c1cc(N2CCOCC2)nc(NC(C)(C)CO)n1 [Example 752, N-(5-(2-((1-hydroxy-2-methylpropan-2-yl)amino)-6-morpholinopyrimidin-4-yl)-6-methylpyridin-3-yl)-3-(trifluoromethyl)benzamide] |  |
|  |  | Cc1ncc(NC(=O)c2cnnc(C(C)(C)C#N)c2)cc1-c1cnc(Cl)c(N2CCOCC2)c1 [Example 293, N-(6′-chloro-2-methyl-5′-morpholino-[3,3′-bipyridin]-5-yl)-6-(2-cyanopropan-2-yl)pyridazine-4-carboxamide] | IC50 [3]: 32.3 nM |
|  | 2.1 | Cc1ccc(NC(=O)c2ccnc(C(C)(C)C)c2)cc1-c1cc(N2CCOCC2)n(C)c(=O)c1 [Example 472, 2-(tert-butyl)-N-(4-methyl-3-(1-methyl-6-morpholino-2-oxo-1,2-dihydropyridin-4-yl)phenyl)isonicotinamide] |  |
| 1.76 |  | Cc1ccc(NC(=O)c2ccnc(C(C)(C)O)c2)cc1-c1cnc(OC(C)C)c(N2CCOCC2)c1 [Example 947, 2-(2-hydroxypropan-2-yl)-N-(3-(6-isopropoxy-5-morpholinopyridin-3-yl)-4-methylphenyl)isonicotinamide] |  |
| 10.8 |  | Cc1ncc(NC(=O)c2ccnc(C(C)(C)C#N)c2)cc1-c1cc(N2CCOCC2)nc(N2CCOCC2)c1 [Example 1123, 2-(2-cyanopropan-2-yl)-N-(2-methyl-2′,6′-dimorpholino-[3,4′-bipyridin]-5-yl)isonicotinamide] |  |
| 5.03 |  | Cc1ncc(NC(=O)c2ccnc(C(C)C)c2)cc1-c1ccnc(N2CCOCC2)c1 [Example 1136, 2-isopropyl-N-(2-methyl-2′-morpholino-[3,4′-bipyridin]-5-yl)isonicotinamide] |  |
|  |  | COc1cc(-c2cc(NC(=O)c3cccc(C(F)(F)F)c3)ccc2C)nc(N2CCOCC2)c1 [Example 196, N-(3-(4-methoxy-6-morpholinopyridin-2-yl)-4-methylphenyl)-3-(trifluoromethyl)benzamide] | IC50: 1.5 nM |
| 0.57 |  | Cc1ccc(NC(=O)c2cnnc(C(F)(F)F)c2)cc1-c1cc(OCCO)nc(N2CCOCC2)c1 [Example 1164, N-(3-(2-(2-hydroxyethoxy)-6-morpholinopyridin-4-yl)-4-methylphenyl)-6-(trifluoromethyl)pyridazine-4-carboxamide] |  |
|  |  | Cn1cc(-c2cc(C(=O)Nc3cccc(C(F)(F)F)c3)ccc2Cl)cc(N2CCOCC2)c1=O [Example 425, 4-chloro-3-(1-methyl-5-morpholino-6-oxo-1,6-dihydropyridin-3-yl)-N-(3-(trifluoromethyl)phenyl)benzamide] | IC50 [3]: 2.6 nM |
| 32.6 |  | Cc1ncc(NC(=O)c2ccnc(C(C)(C)C#N)c2)cc1-c1cc(N2CCOCC2)c2nccn2c1 [Example 881, 2-(2-cyanopropan-2-yl)-N-(6-methyl-5-(8-morpholinoimidazo[1,2-a]pyridin-6-yl)pyridin-3-yl)isonicotinamide] |  |
|  | 2.1 | CCn1c(N2CCOCC2)cc(-c2cc(NC(=O)c3ccnc(C(F)(F)CC)c3)ccc2C)cc1=O [Example 520, 2-(1,1-difluoropropyl)-N-(3-(1-ethyl-6-morpholino-2-oxo-1,2-dihydropyridin-4-yl)-4-methylphenyl)isonicotinamide] |  |
|  |  | CC(F)(F)c1cc(C(=O)Nc2c[nH]c(=O)c(-c3ccnc(N4CCOCC4)c3)c2)ccn1 [Example 89, 2-(1,1-difluoroethyl)-N-(2′-morpholino-2-oxo-1,2-dihydro-[3,4′-bipyridin]-5-yl)isonicotinamide] | IC50 [3]: 25000 nM |
| 2.15 |  | Cc1ccc(NC(=O)c2ccnc(C(C)(F)F)c2)cc1-c1cnc(OCCO)c(N2CCOCC2)c1 [Example 1000, 2-(1,1-difluoroethyl)-N-(3-(6-(2-hydroxyethoxy)-5-morpholinopyridin-3-yl)-4-methylphenyl)isonicotinamide] |  |
|  |  | Cc1ccc(NC(=O)c2cccc(S(C)(=O)=O)c2)cc1-c1ccnc(N2CCOCC2)c1 [Example 68, N-(4-methyl-3-(2-morpholinopyridin-4-yl)phenyl)-3-(methylsulfonyl)benzamide] | IC50 [3]: 0.6 nM |

| Structure (SMILES) | IC50 [1] [nM] | IC50 [2] [nM] | also measured |
| --- | --- | --- | --- |
| Cc1ccc(NC(=O)c2cccc(C(F)(F)F)c2)cc1-c1cc(N2CC3CC(C2)O3)c(=O)n(C)c1 [Example 464, N-(3-(5-(6-oxa-3-azabicyclo[3.1.1]heptan-3-yl)-1-methyl-6-oxo-1,6-dihydropyridin-3-yl)-4-methylphenyl)-3-(trifluoromethyl)benzamide] |  | 16.8 |  |
| Cc1ccc(NC(=O)c2ccnc(C(C)(C)C#N)c2)cc1-c1cc(N2C3CCC2COC3)c(=O)n(C)n1 [Example 669, N-(3-(5-(3-oxa-8-azabicyclo[3.2.1]octan-8-yl)-1-methyl-6-oxo-1,6-dihydropyridazin-3-yl)-4-methylphenyl)-2-(2-cyanopropan-2-yl)isonicotinamide] |  | 10 |  |
